# Measured values as given in US9499535B2, “Kinase inhibitors” (ORIGENIS GMBH, priority 2011, dated 2016).
# Columns and labels:
# SYK kinase = target: T1, SYK kinase (Homo sapiens, UniProt P43405); assay: SYK assay (OMNIA Kinase Assay, Invitrogen); format: biochemical; conditions: apparent Ki calculated from the IC50 using the Cheng-Prusoff equation; 1 mM ATP, 10 μM Peptide Substrate; read-out: SYK Activities: Ki
# T1 construct: purchased Invitrogen, Carlsbad
# Procedure: In the assay OMNIA® KINASE ASSAY by Invitrogen Corporation (Carlsbad) the effect of invention of a compound on the phosphorylation is determined by measurement of fluorescence intensity of a chelation-enhanced fluorophore called SOX. Upon phosphorylation of the peptide by the kinase of interest, Mg2+ is chelated to form a bridge between the SOX moiety and the phosphate group that is transferred to the specific tyrosine on the peptide. The fluorescence intensity is directly proportional to the amount of peptide phosphorylation.
# To the wells of an 384 well small volume plate (Greiner, Frickenhausen) are added (i) the compound under test in 5% DMSO/distilled water (2 μl), (ii) 16 μl of the master mix containing ATP, DTT, Kinase Reaction Buffer, Omina Peptide Substrate Tyr 7 resulting in a final concentration of 1 mM ATP, 0.2 mM DTT and 10 μM Peptide Substrate.
# The Master Mix and the assay plate was incubated to reaction temperature before the measurement (30° C.). The reaction was started with addition of (iii) 2 μl 4 μg/ml SYK kinase (Invitrogen, Carlsbad). During measurement fluorescence intensitiy readings were collected using a TECAN M1000 at a wavelength of λex 360/λem 485 nm every 30 s for 30 minutes. The reaction velocity was plotted versus the inhibitor concentration to determine the IC50 using XLFit 5.0 (IDBS, Guildford) to fit to a sigmoidal dose response curve, and the apparent Ki values were calculated from the IC50 using the Cheng-Prusoff equation (Cheng, Y.; Prusoff, W. H. Biochem. Pharmacol. 22, 3099-3108, 1973).
# LRRK2 = LRRK2 (Homo sapiens, UniProt Q5S007); assay: LRRK2 assay (LanthaScreen Eu Kinase Binding Assay); conditions: 5 nM LRRK2, 10 nM tracer 236, RT 1 h; read-out: LRRK2 Activites: IC50
# Text: Binding of the tracer to the kinase is detected using a europium-labeled anti-tag antibody, which binds to the kinase of interest. […] Binding of an inhibitor to the kinase competes for binding with the tracer, resulting in a loss of FRET. The fluorescence intensity ratio is directly proportional to the amount of peptide phosphorylation.
# The inhibitor concentration was plotted versus the emission ratio to determine the IC50 using XLFit 5.0 (IDBS, Guildford) to fit to a sigmoidal dose response curve with a variable slope.
# Chain of LRRK2 (Q5S007 970-2527 limits assumed): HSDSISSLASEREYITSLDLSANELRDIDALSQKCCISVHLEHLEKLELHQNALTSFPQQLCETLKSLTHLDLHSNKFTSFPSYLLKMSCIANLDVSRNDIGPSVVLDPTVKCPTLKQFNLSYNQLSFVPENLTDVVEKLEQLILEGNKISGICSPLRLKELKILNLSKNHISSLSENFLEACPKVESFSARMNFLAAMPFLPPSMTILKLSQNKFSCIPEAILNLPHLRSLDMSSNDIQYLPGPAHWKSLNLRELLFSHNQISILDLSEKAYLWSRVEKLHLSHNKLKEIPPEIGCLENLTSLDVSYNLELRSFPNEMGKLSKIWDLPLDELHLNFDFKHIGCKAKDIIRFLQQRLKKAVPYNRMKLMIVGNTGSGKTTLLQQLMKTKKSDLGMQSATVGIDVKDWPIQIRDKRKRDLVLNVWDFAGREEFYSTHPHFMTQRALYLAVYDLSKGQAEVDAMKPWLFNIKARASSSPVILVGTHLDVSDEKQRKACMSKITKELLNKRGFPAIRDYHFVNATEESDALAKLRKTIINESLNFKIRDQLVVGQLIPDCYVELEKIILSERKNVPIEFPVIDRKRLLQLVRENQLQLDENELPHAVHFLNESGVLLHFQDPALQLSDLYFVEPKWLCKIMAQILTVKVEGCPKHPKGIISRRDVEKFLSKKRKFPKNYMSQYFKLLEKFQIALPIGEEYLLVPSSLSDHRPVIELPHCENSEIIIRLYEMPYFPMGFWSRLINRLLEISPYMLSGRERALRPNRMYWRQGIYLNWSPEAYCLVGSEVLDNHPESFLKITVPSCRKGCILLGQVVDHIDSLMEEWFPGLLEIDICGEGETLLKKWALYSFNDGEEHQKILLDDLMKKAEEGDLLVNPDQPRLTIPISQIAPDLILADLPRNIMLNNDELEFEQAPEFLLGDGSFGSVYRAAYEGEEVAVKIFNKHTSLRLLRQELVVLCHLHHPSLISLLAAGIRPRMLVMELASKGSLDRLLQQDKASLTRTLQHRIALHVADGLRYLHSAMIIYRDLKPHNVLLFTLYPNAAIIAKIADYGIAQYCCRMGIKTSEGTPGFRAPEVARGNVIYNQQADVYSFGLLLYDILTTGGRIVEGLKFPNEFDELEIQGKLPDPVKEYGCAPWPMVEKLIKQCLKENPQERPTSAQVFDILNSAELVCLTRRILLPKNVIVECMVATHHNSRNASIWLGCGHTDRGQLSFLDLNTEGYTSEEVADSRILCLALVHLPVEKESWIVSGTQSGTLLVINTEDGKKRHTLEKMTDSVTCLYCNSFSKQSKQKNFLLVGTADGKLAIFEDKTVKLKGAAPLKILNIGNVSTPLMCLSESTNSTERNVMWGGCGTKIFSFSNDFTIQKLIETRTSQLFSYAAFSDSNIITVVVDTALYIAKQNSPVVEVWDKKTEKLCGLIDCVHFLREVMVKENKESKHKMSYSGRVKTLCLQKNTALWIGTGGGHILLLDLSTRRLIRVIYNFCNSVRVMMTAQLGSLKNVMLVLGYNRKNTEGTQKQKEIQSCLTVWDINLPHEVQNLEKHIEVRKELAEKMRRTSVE
SMILES,Ki (SYK kinase),IC50 (LRRK2)
"COc1ccc2nc(Nc3ccc4c(c3)NCCC4)c3n[nH]cc3c2c1 [Example #196, (8-Methoxy-2H-pyrazolo[3,4-c]quinolin-4-yl)-(1,2,3,4-tetrahydro-quinolin-7-yl)-amine]",10 to 100 nM,100 to 1000 nM
"COc1ccc2nc(Nc3ccc(N(C)C)cc3)c3n[nH]cc3c2c1 [Example #51, N-(8-Methoxy-2H-pyrazolo[3,4-c]quinolin-4-yl)-N′,N′-dimethyl-benzene-1,4-diamine]",10 to 100 nM,10 to 100 nM
"COc1ccc2nc(Nc3ccc(F)c(OC)c3)c3n[nH]cc3c2c1 [Example #124, (4-Fluoro-3-methoxy-phenyl)-(8-methoxy-2H-pyrazolo[3,4-c]quinolin-4-yl)-amine]",10 to 100 nM,100 to 1000 nM
"COc1ccc2nc(Nc3ccc4c(c3)NC(=O)CC4)c3n[nH]cc3c2c1 [Example #93, 7-(8-Methoxy-2H-pyrazolo[3,4-c]quinolin-4-ylamino)-3,4-dihydro-1H-quinolin-2-one]",< 10 nM,< 10 nM
"COc1ccc2nc(Nc3ccc4c(c3)NC(=O)CS4)c3[nH]ncc3c2c1 [Example #94, 6-(8-Methoxy-3H-pyrazolo[3,4-c]quinolin-4-ylamino)-4H-benzo[1,4]thiazin-3-one]",10 to 100 nM,10 to 100 nM
COc1ccc2nc(Nc3ccc(N4CCCC4=O)cc3)c3[nH]ncc3c2c1 [Example #106],100 to 1000 nM,100 to 1000 nM
"COc1ccc2nc(Nc3ccc(Cc4ccncc4)cc3)c3n[nH]cc3c2c1 [Example #161, (8-Methoxy-2H-pyrazolo[3,4-c]quinolin-4-yl)-(4-pyridin-4-ylmethyl-phenyl)-amine]",10 to 100 nM,10 to 100 nM
"COc1ccc2nc(Nc3ccc4c[nH]nc4c3)c3n[nH]cc3c2c1 [Example #74, (1H-Indazol-6-yl)-(8-methoxy-2H-pyrazolo[3,4-c]quinolin-4-yl)-amine]",10 to 100 nM,10 to 100 nM
"COc1ccc2nc(Nc3ccc4c(c3)NC(=O)CO4)c3[nH]ncc3c2c1 [Example #47, 6-(8-Methoxy-3H-pyrazolo[3,4-c]quinolin-4-ylamino)-4H-benzo[1,4]oxazin-3-one]",,10 to 100 nM
"Cc1nsc2nc(Nc3ccc4cn[nH]c4c3)c3n[nH]cc3c12 [Example #219, (1H-Indazol-6-yl)-(1-methyl-7H-3-thia-2,4,6,7-tetraaza-as-indacen-5-yl)-amine]",10 to 100 nM,
"c1ccc(Nc2nc3ccccc3c3cn[nH]c23)nc1 [Example #28, (3H-Pyrazolo[3,4-c]quinolin-4-yl)-pyridin-2-yl-amine]",100 to 1000 nM,
"COc1ccc2nc(Nc3ccc(C(C)=O)cc3)c3n[nH]cc3c2c1 [Example #145, 1-[4-(8-Methoxy-2H-pyrazolo[3,4-c]quinolin-4-ylamino)-phenyl]-ethanone]",,100 to 1000 nM
"c1ccc2c(c1)nc(Nc1ccc3[nH]cnc3c1)c1n[nH]cc12 [Example #17, (1H-Benzoimidazol-5-yl)-(2H-pyrazolo[3,4-c]quinolin-4-yl)-amine]",100 to 1000 nM,
"Cn1ncc2ccc(Nc3nc4ccccc4c4c[nH]nc34)cc21 [Example #24, (1-Methyl-1H-indazol-6-yl)-(2H-pyrazolo[3,4-c]quinolin-4-yl)-amine]",100 to 1000 nM,
"COc1ccc2nc(Nc3ccc(Cc4ccccc4)cc3)c3n[nH]cc3c2c1 [Example #190, (4-Benzyl-phenyl)-(8-methoxy-2H-pyrazolo[3,4-c]quinolin-4-yl)-amine]",100 to 1000 nM,
"COc1ccc2nc(Nc3ccc4cc[nH]c4c3)c3[nH]ncc3c2c1 [Example #75, (1H-Indol-6-yl)-(8-methoxy-3H-pyrazolo[3,4-c]quinolin-4-yl)-amine]",100 to 1000 nM,
"COc1ccc2nc(Nc3ccc4[nH]nnc4c3)c3n[nH]cc3c2c1 [Example #48, (1H-Benzotriazol-5-yl)-(8-methoxy-2H-pyrazolo[3,4-c]quinolin-4-yl)-amine]",,100 to 1000 nM
"c1ccc2c(c1)nc(Nc1ccc3c(c1)OCO3)c1n[nH]cc12 [Example #22, Benzo[1,3]dioxol-5-yl-(2H-pyrazolo[3,4-c]quinolin-4-yl)-amine]",100 to 1000 nM,
"COc1ccc2nc(Nc3ccc4c[nH]nc4c3)c3n[nH]cc3c2c1 [Example #15, (2H-Indazol-6-yl)-(8-methoxy-2H-pyrazolo[3,4-c]quinolin-4-yl)-amine]",,100 to 1000 nM
"COc1ccc2nc(Nc3ccc4[nH]ncc4c3)c3n[nH]cc3c2n1 [Example #90, (1H-Indazol-5-yl)-(8-methoxy-2H-2,3,5,9-tetraaza-cyclopenta[a]naphthalen-4-yl)-amine]",100 to 1000 nM,
"FC(F)(F)c1cccc(Nc2nc3ccccc3c3c[nH]nc23)c1 [Example #2, (2H-Pyrazolo[3,4-c]quinolin-4-yl)-(3-trifluoromethyl-phenyl)-amine]",100 to 1000 nM,
"c1ccc2cc(Nc3nc4ccccc4c4cn[nH]c34)ncc2c1 [Example #30, Isoquinolin-3-yl-(3H-pyrazolo[3,4-c]quinolin-4-yl)-amine]",100 to 1000 nM,
"COc1ccc(Nc2nc3ccccc3c3c(C(F)(F)F)[nH]nc23)cc1OC [Example #210, (3,4-Dimethoxy-phenyl)-(1-trifluoromethyl-2H-pyrazolo[3,4-c]quinolin-4-yl)-amine]",100 to 1000 nM,
COc1ccc(CCNC(=O)Cc2ccc(Nc3nc4ccc(OC)cc4c4c[nH]nc34)cc2)cc1 [Example #215],,100 to 1000 nM
"Brc1ccc2nc(Nc3ccc4[nH]ccc4c3)c3n[nH]cc3c2c1 [Example #99, (8-Bromo-2H-pyrazolo[3,4-c]quinolin-4-yl)-(1H-indol-5-yl)-amine]",100 to 1000 nM,
"COc1ccc2nc(Nc3ccc(Oc4ccccc4)cc3)c3n[nH]cc3c2c1 [Example #159, (8-Methoxy-2H-pyrazolo[3,4-c]quinolin-4-yl)-(4-phenoxy-phenyl)-amine]",10 to 100 nM,

# Other lines, results leading:
Ki (SYK kinase),IC50 (LRRK2),SMILES
100 to 1000 nM,100 to 1000 nM,"COc1ccc2nc(Nc3ccc(OCC(=O)O)c(OC)c3)c3n[nH]cc3c2c1 [Example #279, 2-(2-methoxy-4-((8-methoxy-2H-pyrazolo[3,4-c]quinolin-4-yl)amino)phenoxy)acetic-acid]"
10 to 100 nM,10 to 100 nM,"CN1CCN(C2CCN(c3ccc(Nc4nc5cccc(F)c5c5cn[nH]c45)cc3)CC2)CC1 [Example #363, 9-fluoro-N-(4-(4-(4-methylpiperazin-1-yl)piperidin-1-yl)phenyl)-3H-pyrazolo[3,4-c]quinolin-4-amine]"
10 to 100 nM,10 to 100 nM,"COc1ccc2nc(Nc3cccc(S(=O)(=O)NC4CC4)c3)c3n[nH]cc3c2c1 [Example #344, N-cyclopropyl-3-((8-methoxy-2H-pyrazolo[3,4-c]quinolin-4-yl)amino)benzenesulfonamide]"
100 to 1000 nM,100 to 1000 nM,"COc1ccc2nc(Nc3ccc(OC(F)F)c(OC)c3)c3n[nH]cc3c2c1 [Example #328, N-(4-(difluoromethoxy)-3-methoxyphenyl)-8-methoxy-2H-pyrazolo[3,4-c]quinolin-4-amine]"
,100 to 1000 nM,"Fc1cc(Nc2nc3cccc(F)c3c3cn[nH]c23)ccc1N1CCOCC1 [Example #364, 9-fluoro-N-(3-fluoro-4-morpholinophenyl)-3H-pyrazolo[3,4-c]quinolin-4-amine]"
100 to 1000 nM,,"COc1ccc2nc(Nc3cccc(OC)c3OC)c3n[nH]cc3c2c1 [Example #331, N-(2,3-dimethoxyphenyl)-8-methoxy-2H-pyrazolo[3,4-c]quinolin-4-amine]"
10 to 100 nM,,"CCN1CCN(c2ccc(Nc3nc4cc(OC)ccc4c4c[nH]nc34)cc2)CC1 [Example #260, [4-(4-Ethyl-piperazin-1-yl)-phenyl]-(7-methoxy-2H-pyrazolo[3,4-c]quinolin-4-yl)-amine]"
100 to 1000 nM,,"O=C(c1ccc(Nc2nc3cc(F)ccc3c3cn[nH]c23)cc1)N1CCCC1 [Example #342, (4-((7-fluoro-3H-pyrazolo[3,4-c]quinolin-4-yl)amino)phenyl)(pyrrolidin-1-yl)methanone]"
100 to 1000 nM,,"COc1ccc2nc(Nc3cccc(S(F)(F)(F)(F)F)c3)c3n[nH]cc3c2c1 [Example #309, 8-methoxy-N-(3-(pentafluorosulfanyl)phenyl)-2H-pyrazolo[3,4-c]quinolin-4-amine]"
100 to 1000 nM,,"COc1ccc(Nc2nc3ccc(OC)cc3c3c[nH]nc23)c(OC)c1 [Example #332, N-(2,4-dimethoxyphenyl)-8-methoxy-2H-pyrazolo[3,4-c]quinolin-4-amine]"
10 to 100 nM,,"COc1ccc2c(c1)nc(Nc1ccc3c(c1)OCCO3)c1n[nH]cc12 [Example #265, (2,3-Dihydro-benzo[1,4]dioxin-6-yl)-(7-methoxy-2H-pyrazolo[3,4-c]quinolin-4-yl)-amine]"
